Results taken from US8182842B1, “Physico-chemical-managed killing of penicillin-resistant static and growing gram-positive and gram-negative vegetative bacteria” (The United States of America as represented by the …, priority 2010, dated 2012).
Entries after “also recorded” stand apart in the source; their conditions may differ.

Columns and labels:
[1] = system: methicillin-resistant Staphylococcus aureus (MRSA); experiment: kill curve time course of MRSA suspensions (CFU survival); type: cell-based
Method: FIGS. 1 through 17 illustrate kill curve time course experiments of stationary and logarithmic-phase MRSA bacterial suspensions exposed to PBS as well as denaturing SS at pH […] or pH 7.4 in the presence of cloxacillin concentrations spanning from 512 μg/ml to 4096 μg/ml. Experiments were conducted at 22° C. or 35° C. The completion time for the experiments ranged from 20 minutes to 24 hours.
For these experiments, the MRSA strain was grown overnight in Mueller-Hinton broth (MH)+2% NaCl at 35° C., subcultured into fresh media, and grown to mid-logarithmic phase. The cells were centrifuged and resuspended in pH 7.4 MH+2% NaCl to produce an OD600 nm known to indicate logarithmic-phase or stationary-phase of growth. An appropriate volume of cells was added to 1 ml of buffered SS in a 10 ml Falcon tube to yield a final concentration of ca. 1×10^8 colony forming units (CFU)/ml, except for the experiments of FIGS. 1-4 where the final concentration of ca. 1×10^6 CFU/ml applies. Survival was determined for bacteria held for varied exposure times of up to 24 hours in the SS or in PBS at pH 5.6 or pH 7.4, each altered with cloxacillin concentrations ranging in doublings from 512 μg/ml to 4096 μg/ml. Survival was measured from samples held at 22° C. and 35° C. After exposure, samples of 50 μl were then withdrawn and a serial dilution series established. Cells were then plated on MH+2% NaCl agar plates and incubated at 22° C. or 35° C. for CFU formation, after which colonies were counted, surviving fractions recorded, and survival curves constructed. Triplicate experiments were conducted for each exposure condition. The cells were treated under static conditions in all cases and treatments were always made on cells held in salt solutions, never on cells held in growth media. In addition to logarithmic-phase cells, stationary-phase cells removed from growth cycle were also treated.
Killing efficiency is evaluated as therapeutically sufficient according to the 10^−5 level of killing in 5 minutes specified by the British Standard BS EN 1276:1997 Chemical Disinfectants and Antiseptics, which is referred to as the gold standard for efficacy of bactericidal agents. Typically, agents meeting the British Standard are too toxic for human topical application. However, this is not a restriction for effective SS containing cloxacillin used in the illustrated embodiment.

Pseudomonas aeruginosa = experiment: kill curve time course of Pseudomonas aeruginosa suspensions (CFU survival); type: cell-based; details: for killing: 20 minutes
Method: FIGS. 18 through 41 illustrate kill curve time-course experiments of stationary-phase and logarithmic-phase Pseudomonas aeruginosa bacterial suspensions exposed to PBS, to SS, to PBS in the presence of cloxacillin concentrations spanning from 512 μg/ml to 4096 μg/ml, or to SS in the presence of cloxacillin concentrations spanning from 512 μg/ml to 4096 μg/ml. Experiments were conducted at 22° C. or 35° C. over the course of 10, 20, or 60 minutes.
Pseudomonas aeruginosa cells were prepared as described above for MRSA with a few exceptions. The Pseudomonas aeruginosa cells were first grown in trypticase soy broth and then frozen in aliquots, which were later rescued into MH broth+2% NaCl for use as in the MRSA experiments. An appropriate volume of cells was added to 1 ml of comparative salt solutions in a 10 ml Falcon tube to yield a final concentration of ca. 1×10^8 colony forming units (CFU)/ml. Survival was determined for bacteria held for varied exposure times of up to 60 minutes in PBS, in SS, in PBS altered with cloxacillin concentrations ranging in doublings from 512 μg/ml to 4096 μg/ml, or in SS containing cloxacillin concentrations ranging in doublings from 512 μg/ml to 4096 μg/ml. The salt solutions were compared at a pH of 5.6 or 7.4. Survival was measured from samples held at 22° C. or 35° C. After exposure, samples of 50 μl were then withdrawn and a serial dilution series established. Cells were then plated on MH+2% NaCl agar plates and incubated at 22° C. or 35° C. for CFU formation, after which colonies were counted, surviving fractions recorded, and survival curves constructed. Triplicate experiments were conducted for each exposure condition. The cells were treated under static conditions in all cases and treatments were always made on cells held in salt solutions, never on cells held in growth media. In addition to logarithmic-phase cells, stationary-phase cells removed from growth cycle were also treated.

SMILES: Cc1onc(-c2ccccc2Cl)c1C(=O)N[C@@H]1C(=O)N2[C@@H]1SC(C)(C)[C@@H]2C(=O)O [cloxacillin]
- killing effect ([1]; FIG. 1, pH 5.5 PBS, 1024 μg/ml cloxacillin, 22° C., logarithmic-phase MRSA, 20 minute): non-substantial killing effect; also recorded: not effective
- killing effect ([1]; FIG. 2, pH 7.4 PBS, 512 μg/ml cloxacillin, 22° C., logarithmic-phase MRSA, 20 minute): non-substantial killing effect; also recorded: not effective
- killing effect ([1]; FIG. 3, pH 5.5 SS, 1024 μg/ml cloxacillin, 22° C., logarithmic-phase MRSA, 20 minute): not effective; also recorded: non-substantial killing effect
- killing effect ([1]; FIG. 4, pH 7.4 SS, 512 μg/ml cloxacillin, 22° C., logarithmic-phase MRSA, 60 minute): substantial killing; also recorded: killing effect
- surviving fraction ([1]; FIG. 4, pH 7.4 SS, 512 μg/ml cloxacillin, 22° C., logarithmic-phase MRSA, all time points, no survivors on treated plates): < 2×10^−4
- killing effect ([1]; FIG. 5, pH 7.4 SS, 512 μg/ml cloxacillin, 22° C., stationary-phase MRSA, 60 minute): killing effect
- killing effect ([1]; FIG. 6, pH 7.4 SS, 1024 μg/ml cloxacillin, 22° C., stationary-phase MRSA, 60 minute): killing effect
- killing effect ([1]; FIG. 7, pH 7.4 SS, 2048 μg/ml cloxacillin, 22° C., stationary-phase MRSA, 60 minute): killing effect
- killing effect ([1]; FIG. 8, pH 7.4 SS, 4096 μg/ml cloxacillin, 22° C., stationary-phase MRSA, 60 minute): killing effect
- time in which the 10^−5 level of killing is achieved ([1]; FIG. 9, pH 7.4 SS, 4096 μg/ml cloxacillin, 22° C., stationary-phase MRSA): 3 hours
- killing effect ([1]; FIG. 9, pH 7.4 SS, 4096 μg/ml cloxacillin, 22° C., stationary-phase MRSA, 24 hour): killing effect
- killing effect ([1]; FIG. 10, pH 7.4 SS, 512 μg/ml cloxacillin, 35° C., logarithmic-phase MRSA, 20 minute): killing effect
- killing effect ([1]; FIG. 11, pH 7.4 SS, 1024 μg/ml cloxacillin, 35° C., logarithmic-phase MRSA, 20 minute): killing effect
- killing effect ([1]; FIG. 12, pH 7.4 SS, 2048 μg/ml cloxacillin, 35° C., logarithmic-phase MRSA, 20 minute): killing effect
- killing effect ([1]; FIG. 13, pH 7.4 SS, 4096 μg/ml cloxacillin, 35° C., logarithmic-phase MRSA, 20 minute): killing effect
- killing effect ([1]; FIG. 14, pH 7.4 SS, 512 μg/ml cloxacillin, 35° C., stationary-phase MRSA, 60 minute): killing effect
- killing effect ([1]; FIG. 15, pH 7.4 SS, 1024 μg/ml cloxacillin, 35° C., stationary-phase MRSA, 60 minute): killing effect
- killing effect ([1]; FIG. 16, pH 7.4 SS, 2048 μg/ml cloxacillin, 35° C., stationary-phase MRSA, 60 minute): killing effect
- killing effect ([1]; FIG. 17, pH 7.4 SS, 4096 μg/ml cloxacillin, 35° C., stationary-phase MRSA, 60 minute): killing effect
- efficiency of killing versus British Standard BS EN 1276:1997 (10^−5 level of killing in 5 minutes) ([1]; FIGS. 5-9, pH 7.4 SS, 512 to 4096 μg/ml cloxacillin, 22° C., stationary-phase MRSA): does not provide the 10^−5 level of killing in 5 minutes
- killing compared with 22° C. ([1]; FIGS. 10-13, pH 7.4 SS, 512 to 4096 μg/ml cloxacillin, 35° C., logarithmic-phase MRSA): killing is enhanced
- killing compared with 22° C. ([1]; FIGS. 14-17, pH 7.4 SS, 512 to 4096 μg/ml cloxacillin, 35° C., stationary-phase MRSA): enhanced killing
- efficiency of killing versus British Standard BS EN 1276:1997 (10^−5 level of killing in 5 minutes) ([1]; pH 7.4 SS with cloxacillin, 35° C., logarithmic-phase MRSA): approaches or exceeds the 10^−5 level of killing in 5 minutes
- efficiency of killing versus British Standard BS EN 1276:1997 (10^−5 level of killing in 5 minutes) ([1]; pH 7.4 SS with cloxacillin, 35° C., stationary-phase MRSA): approaches or exceeds the 10^−5 level of killing in 5 minutes
- killing effect (Pseudomonas aeruginosa; FIG. 22, pH 7.4 PBS, 512 μg/ml cloxacillin, 22° C., logarithmic-phase, 20 minute): non-substantial killing effect
- killing effect (Pseudomonas aeruginosa; FIG. 23, pH 7.4 PBS, 1024 μg/ml cloxacillin, 22° C., logarithmic-phase, 20 minute): non-substantial killing effect
- killing effect (Pseudomonas aeruginosa; FIG. 24, pH 7.4 PBS, 2048 μg/ml cloxacillin, 22° C., logarithmic-phase, 20 minute): non-substantial killing effect
- killing effect (Pseudomonas aeruginosa; FIG. 25, pH 7.4 PBS, 4096 μg/ml cloxacillin, 22° C., logarithmic-phase, 20 minute): non-substantial killing effect
- killing effect (Pseudomonas aeruginosa; FIG. 26, pH 7.4 SS, 512 μg/ml cloxacillin, 22° C., logarithmic-phase, 20 minute): killing effect
- killing effect (Pseudomonas aeruginosa; FIG. 27, pH 7.4 SS, 1024 μg/ml cloxacillin, 22° C., logarithmic-phase, 20 minute): killing effect
- killing effect (Pseudomonas aeruginosa; FIG. 28, pH 7.4 SS, 2048 μg/ml cloxacillin, 22° C., logarithmic-phase, 10 minute): killing effect
- killing effect (Pseudomonas aeruginosa; FIG. 29, pH 7.4 SS, 4096 μg/ml cloxacillin, 22° C., logarithmic-phase, 10 minute): killing effect
- killing effect (Pseudomonas aeruginosa; FIG. 30, pH 7.4 PBS, 512 μg/ml cloxacillin, 35° C., logarithmic-phase, 20 minute): non-substantial killing effect
- killing effect (Pseudomonas aeruginosa; FIG. 31, pH 7.4 PBS, 1024 μg/ml cloxacillin, 35° C., logarithmic-phase, 20 minute): non-substantial killing effect
- killing effect (Pseudomonas aeruginosa; FIG. 32, pH 7.4 PBS, 2048 μg/ml cloxacillin, 35° C., logarithmic-phase, 20 minute): non-substantial killing effect
- killing effect (Pseudomonas aeruginosa; FIG. 33, pH 7.4 PBS, 4096 μg/ml cloxacillin, 35° C., logarithmic-phase, 20 minute): non-substantial killing effect
- killing effect (Pseudomonas aeruginosa; FIG. 34, pH 7.4 SS, 512 μg/ml cloxacillin, 35° C., logarithmic-phase, 20 minute): killing effect
- killing effect (Pseudomonas aeruginosa; FIG. 35, pH 7.4 SS, 1024 μg/ml cloxacillin, 35° C., logarithmic-phase, 20 minute): killing effect
- killing effect (Pseudomonas aeruginosa; FIG. 36, pH 7.4 SS, 2048 μg/ml cloxacillin, 35° C., logarithmic-phase, 20 minute): killing effect
- killing effect (Pseudomonas aeruginosa; FIG. 37, pH 7.4 SS, 4096 μg/ml cloxacillin, 35° C., logarithmic-phase, 20 minute): killing effect
- killing effect (Pseudomonas aeruginosa; FIG. 38, pH 7.4 SS, 512 μg/ml cloxacillin, 22° C., stationary-phase, 20 minute): killing effect
- killing effect (Pseudomonas aeruginosa; FIG. 39, pH 7.4 SS, 1024 μg/ml cloxacillin, 22° C., stationary-phase, 20 minute): killing effect
- killing effect (Pseudomonas aeruginosa; FIG. 40, pH 7.4 SS, 2048 μg/ml cloxacillin, 22° C., stationary-phase, 20 minute): killing effect
- killing effect (Pseudomonas aeruginosa; FIG. 41, pH 7.4 SS, 4096 μg/ml cloxacillin, 22° C., stationary-phase, 20 minute): killing effect
- killing (Pseudomonas aeruginosa; FIGS. 22-25, PBS pH 7.4, 512 to 4096 μg/ml cloxacillin, 22° C., logarithmic-phase): non-substantial killing
- efficiency of killing (Pseudomonas aeruginosa; FIGS. 26-29, SS pH 7.4, all concentrations 512 to 4096 μg/ml cloxacillin, 22° C., logarithmic-phase, 10 or 20 minutes): substantially efficient in killing
- killing (Pseudomonas aeruginosa; FIGS. 30-33, PBS pH 7.4, 512 to 4096 μg/ml cloxacillin, 35° C., logarithmic-phase): non-substantial killing
- killing (Pseudomonas aeruginosa; FIGS. 34-37, SS pH 7.4, 512 to 4096 μg/ml cloxacillin, 35° C., logarithmic-phase): substantial killing
- killing (Pseudomonas aeruginosa; FIGS. 38-41, SS pH 7.4, 512 to 4096 μg/ml cloxacillin, 22° C., stationary-phase): substantial killing
